Measured values reported in patent US20240091299A1, “TOPICAL COMPOSITIONS FOR ENHANCING A MAN'S SEXUAL RESPONSIVENESS AND PERFORMANCE” (The Hidden Vault LLC, priority 2022, published 2024).

Tested on: penis of a person
Assay: topical application of the compositions (massage oil) to a person's penis, twice daily
Assay type: in vivo, human
Settings: ingredient as included in the compositions, applied topically to a person's penis as a massage oil

## C=C(C)[C@@H]1CCC(C)=C[C@H]1c1c(O)cc(CCCCC)cc1O [CBD, Cannabidiol]
  effect on sexual arousal, performance, libido and penis size: enhances sexual arousal and performance and stamina
